Data from a melting point compilation (Tetko et al.).
Peptide text beside a SMILES is read from it.

Compound | melting point [°C]
COc1cc2c(N)nc(N3CCN(C(=O)OCC(C)(C)O)CC3)nc2c(OC)c1OC | 158
CC1(C)O[C@@H]2[C@H](O1)[C@@H]1C[C@H]2NC1=O | 150 to 152
N#Cc1cc(F)ccc1Br | 90
CC1CCC(C(C)C)/C(=N\NC(N)=O)C1 (configuration not stated) | 216 to 217
Cn1cc(Br)c(C(=O)O)n1 | 211 to 213
Cc1cc(C)c(O)c(C(C)(C)C)c1 | 22.3
O=[N+]([O-])c1cccc(F)c1CBr | 52
CCCCCCC(O)CCCCC (configuration not stated) | 30
ClCc1cc(-c2ccco2)on1 | 47 to 49
C[C@]12CCC(=O)C=C1CCC2=O | 55 to 64
CCCCCCc1ccc(-c2ccccc2)cc1 | 30
Cc1ccc(Br)cc1[N+](=O)[O-] | 47
CSc1sc(Cl)c2c1C(=O)CC(C)(C)C2 | 126 to 129
CC(CCc1oc2ccc(Br)cc2c1-c1ccc(C)o1)=NO | 132
C1CCCSCC1 | 0.5
O=C(O)c1cc(Cl)ccc1C(F)(F)F | 86
O=C(OCCOc1ccc(Cl)cc1Cl)c1ccccc1 | 66
O=Cc1ccc(-c2ccc(C=O)cc2)cc1 | 148
Cc1ccc2c(C)c(C)ccc2c1 | 14
NC(=S)NCCN1CCCCC1 | 107 to 110
Cc1c(N)cccc1N | 106
NNC(=S)Nc1ccc(OCc2ccccc2)cc1 | 167 to 170

Compound | melting point [°C]
CC12C=CC(=O)C=C1CCC1C2C(O)CC2(C)C1CCC2(O)C(=O)COC(=O)CCCc1ccc(N(CCCl)CCCl)cc1 (configuration not stated) | 164
O=C(c1ccc2c(c1)C(=O)OC2=O)c1ccc2c(c1)C(=O)OC2=O | 219 to 226
CCSc1nnc(C(C)(C)C)c(=O)n1N | 95
C[Si](C)(C)N=C=N[Si](C)(C)C | -23
O=C(O)c1c(Cl)c(Cl)c(Cl)c(Cl)c1C(=O)Nc1cccc(Cl)c1Cl | 198
Clc1cc(-c2ccccc2)nc2ccccc12 | 62 to 64
CCC(Cc1c(I)cc(I)c(N)c1I)C(=O)O (configuration not stated) | 155
CC(=O)Nc1ccc2c(c1)CCC2 | 106 to 108
Fc1cc(Br)c(Br)cc1F | 33
O=C1OC(c2ccc([N+](=O)[O-])cc2)Cc2ccccc21 (configuration not stated) | 184
CC(=O)OC1CCCCC1C(C)(C)C (configuration not stated) | 35
CC(C)(C)NCC(O)c1cc(O)cc(O)c1 (configuration not stated) | 119
CNC(=O)NC | 108
CC1=NNC(=O)C1=NNc1ccc(Cl)cc1 | 215
CCc1cccc(C)c1N(COC(C)C)C(=O)CCl | 21.6
O=C(C=Cc1ccccc1)c1cccc(C(=O)C=Cc2ccccc2)c1 | 142
CCCCCCCCCCCCSCCCCCCCCCCCC | 36 to 43
CCC(CO)(CO)COCC(CC)(CO)CO | 110
CS(=O)(=O)OCCCNCCCOS(C)(=O)=O | 116
O=[N+]([O-])c1ccc(Br)c(Cl)c1 | 61
BrC(Br)c1ccc(C(Br)Br)cc1 | 170 to 173
O=S1(=O)c2ccccc2-c2ccccc21 | 231 to 236

Compound | melting point [°C]
CC(C)(C)[C@@H]1NC(=O)CNC1=O | 300
O=S(=O)(CCCl)c1ccccc1 | 54
O=C(CC1(O)Cc2ccccc21)c1ccccc1 (configuration not stated) | 83 to 83.5
COc1ccc(-c2nnc3n2NC(c2ccccc2)S3)cc1 (configuration not stated) | 134
Oc1ccc(Br)c(O)c1 | 103
C/C(C#Cc1ccccc1)=C/C(C)=N/Nc1ccc([N+](=O)[O-])cc1[N+](=O)[O-] | 210 to 212
N#CCc1ccccc1OCc1ccccc1 | 77
CCCCCCCCCCCCCCCC(=O)OCC=C(C)C=CC=C(C)C=CC1=C(C)CCCC1(C)C | 28.5
Nc1nc(SCc2ccc([N+](=O)[O-])cc2)c2ncn(C3OC(CO)C(O)C3O)c2n1 (configuration not stated) | 203 to 205
COc1ccc(O)c(C=O)c1 | 14.5
C#CCCCCN1C(=O)c2ccccc2C1=O | 70
COC(=O)C1=C(C)NC(=S)NC1c1ccccc1 (configuration not stated) | 224 to 225
N#Cc1ccc(N)c(N)c1 | 144 to 145
COc1ccccc1C1Nn2c(nnc2-c2cccnc2)S1 (configuration not stated) | 221
Nc1ccc(O)cc1F | 139
Oc1cccc(Cl)n1 | 130
Cc1ccc(S(=O)(=O)n2cc(C=O)c3ccccc32)cc1 | 138 to 140
CN1CCN(c2cccc(C(=O)O)c2)CC1 | 187 to 190
O=C(OCCOc1cc(OCCOC(=O)c2ccccc2)c([N+](=O)[O-])cc1[N+](=O)[O-])c1ccccc1 | 165
O=C(O)CN1C(=O)CSC1=S | 147
ClC1CCC(Cl)CC1 (configuration not stated) | 18
O=C(O)c1ccnn1-c1ccccc1 | 182 to 183

Compound | melting point [°C]
O=Cc1ccc(Sc2ccccn2)o1 | 65 to 67
COc1cccc2c1ccn2C | 89 to 91
N#Cc1c(NC(=O)c2ccc(Cl)cc2Cl)sc2c1CCCC2 | 201 to 202
O=C(Nc1ccccc1)c1ccccc1I | 137
CN(C)c1ccc(N=Nc2ccc(N=C=S)cc2)cc1 | 167 to 171
CC1(C)C(C=C(Cl)C(F)(F)F)C1C(=O)O (configuration not stated) | 108
Nc1cc2ccccc2cc1C(=O)O | 216
Cc1nnc(-c2ccccn2)nc1C | 85
Cc1ccc2c(c1)C(=O)c1ccc(C)cc1C2=O | 240
Cc1csc(=S)n1O | 88 to 93
CCCCCCCCCCCCCCOc1ccccc1NC(=O)c1cc(Oc2ccc([N+](=O)[O-])cc2CN(C(=O)Cl)C(C)C)c2ccccc2c1O | 109 to 116
O=C(O)c1cnc(Cl)c(Br)c1 | 172
C=C(C)C(=O)Oc1ccc(C(C)(C)c2ccc(OC(=O)C(=C)C)cc2)cc1 | 70 to 76
NC(=O)OCCCc1ccccc1 | 102
N#Cc1cc(F)ccc1[N+](=O)[O-] | 103
CCCCCCCCC(CCCCCCCC)C(=O)O | 38.5
Brc1ccc2[nH]ccc2c1 | 91
C=CCc1cc(C=O)c(O)c(OC)c1 | 48 to 52
CN(C)c1cccc2c(S(=O)(=O)F)cccc12 | 52
Cc1nc(S)sc1C | 166 to 168
C=CC(=O)NC(O)C(O)NC(=O)C=C (configuration not stated) | 142
CCN(CCO)CCO | -50

Compound | melting point [°C]
NC(C(=O)O)c1ccccc1 (configuration not stated) | 302
O=C1CCCCCCCCCCCN1 | 152
COc1ccc2nc(Cl)c(CO)cc2c1 | 133
Nc1cc(-c2cccs2)n[nH]1 | 101
CCC1=C(C=NNc2ccc([N+](=O)[O-])cc2[N+](=O)[O-])CCCC1 | 192 to 194
O=C(NCO)NCO | 126
CC12CCC(=O)C(O)=C1CCC1C2CCC2(C)C1CCC2(C)O (configuration not stated) | 170
Cc1ccc(C(c2ccc(C)o2)c2cc(Br)ccc2O)o1 | 97
NCC(=O)NCC(=O)O | 262 to 264
COc1ccc(CNC(N)=S)cc1 | 135 to 137
Cn1c(=O)c(C2=NNC(=O)C2=NNc2ccccc2Cl)c(O)c2ccccc21 | 264
CCCCOC(=O)C1=C(C)NC(=O)NC1c1ccc2c(c1)OCO2 (configuration not stated) | 143
O=C=Nc1cccs1 | 108 to 110
CCCC(O)(CCC)C1(C)CCC(C(=O)O)C(C)(C)O1 (configuration not stated) | 111 to 112
O=C(NC(c1ccccc1)C(O)C(=O)O)c1ccccc1 (configuration not stated) | 170
S=C=Nc1ccc2nsnc2c1 | 96 to 97
Clc1ccc(-c2nc3c4ccccc4ccn3n2)cc1 | 238
O=Cc1c(O)cc(Cl)cc1Cl | 52
Cc1cccc(C)c1N(C)C | -36
Cc1ccccc1-c1cc2ccccc2c(=O)o1 | 86
O=C1C=C(Nc2ccccc2)CCC1 | 178 to 182
N#Cc1cc(Br)ccc1F | 79

Compound | melting point [°C]
FC1(F)C(F)(F)C(F)(F)C1(F)F | -40.1
Cc1nc(-c2ccc(CBr)cc2)cs1 | 73 to 76
Ic1cccs1 | -40
Cc1cc2nc3c(=O)[nH]c(=O)nc-3n(CC(O)C(O)C(O)CO)c2cc1C (configuration not stated) | 290
CC(=O)N1c2ccccc2CC1c1ccccc1 (configuration not stated) | 129
CCN(CC)CCOC(=O)c1ccc(N)cc1 | 61
O=c1[nH]c(=O)n(C2CCCO2)cc1F (configuration not stated) | 172
O=c1c2ccccc2nc2n1CCc1c-2[nH]c2ccccc12 | 260
O=C(O)[C@H](O)[C@@H](O)[C@H](O)[C@H](O)CO | 131
O=Cc1cc(F)ccc1O | 84
O=[N+]([O-])c1ccc(-n2ncc3cccnc32)c([N+](=O)[O-])c1 | 181 to 187
c1ccc2c(c1)Oc1nc3ccccc3nc1O2 | 256
COc1ccc2nc(C#N)sc2c1 | 128 to 131
O=C(c1ccccc1)c1cccc(O)c1 | 117 to 119
O=C(NC(=O)C(F)(F)F)C(F)(F)F | 84
NC(CCN(Cc1ccco1)S(=O)(=O)c1ccc(Cl)cc1)=NO | 115 to 117
COC(=O)Nc1cccc(OC(=O)Nc2cccc(C)c2)c1 | 143
N[C@@H](CC(=O)O)C(=O)N[C@@H](Cc1ccccc1)C(=O)O (H-Asp-Phe-OH) | 236 to 239
Brc1sc(-c2ccccc2)nc1-c1ccccc1 | 88 to 89
CC(=O)Nc1c(C)cc(Cl)cc1Cl | 174 to 176
C=C[Si](Cl)(Cl)Cl | -95
c1ccc2nn(C3CCCCC3)nc2c1 | 46.5
